Measurements: ChEMBL document CHEMBL1201862, “PubChem BioAssay data set” (2004)
Activity calls are given as the source filed them.

Key:
[1] = Trypanosoma cruzi growth suppression in host cells – NIH3T3 host cells, beta-gal luminescence, confirmation (AID 2044); type: functional, cell-based;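 also: intracellular parasites grown in NIH/3T3 mouse fibroblasts as host cells; luminescent beta-galactosidase reporter signal from transgenic T. cruzi replicating inside host cells; inhibitors lower the luminescence signal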
[2] = NIH3T3 cell viability loss – ATP luminescence, mouse fibroblasts, counter-screen, dose response (AID 2010); type: functional, cell-based;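 also: cells exposed to compound for about 90 hours before reading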
cells [3] = test: cells
[4] = HPDE-C7 pancreatic duct cell viability loss – fluorescence, HTS (AID 430); type: functional, cell-based; settings: Homo sapiens
[5] = viability loss of HPDE-C7K cells – cell-based, fluorescence, HTS, primary screen (AID 431); type: functional; settings: Homo sapiens
[6] = viability inhibitors of stage V gametocytes – luminescence, dose response (AID 1117278); type: functional, cell-based;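 also: gametocytes exposed to compound for 24 hours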
[7] = viability loss in human Jurkat cells – cell-based, luminescence, cytotoxicity control for P. falciparum gametocyte viability project, dose response (AID 1117277); type: functional;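 also: potency reflects loss of cellular ATP meaning fewer viable cells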
NS3 = NS3 (Hepatitis C virus, UniProt A3EZJ3); test: PubChem AID 2173; set-up: species or system Hepacivirus hominis
Major prion protein = Major prion protein (Homo sapiens, UniProt P04156); type: functional, cell-based
cells [8] = test: cells; remark: listed apart in the source
[9] = target: Peroxisome proliferator-activated receptor gamma/Nuclear receptor coactivator 2 (Homo sapiens, UniProt P37231); type: functional;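 also: agonist potency for raising coactivator recruitment to the receptor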
[10] = target: Peroxisome proliferator-activated receptor gamma/Nuclear receptor coactivator 1 (Homo sapiens, UniProt P37231); type: functional;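 also: agonist potency as compounds enhance coactivator SRC-1 recruitment to PPARgamma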
[11] = target: Peroxisome proliferator-activated receptor gamma/Nuclear receptor coactivator 3 (Homo sapiens, UniProt P37231); type: functional;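 also: agonist potency for raising coactivator recruitment to the receptor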
Estrogen receptor = target: T1, Estrogen receptor (Homo sapiens, UniProt P03372); test: ERα coactivator recruitment enhancers – biochemical, TR-FRET, ERα LBD, dose response (AID 737)
T1 sequence (P03372 whole entry): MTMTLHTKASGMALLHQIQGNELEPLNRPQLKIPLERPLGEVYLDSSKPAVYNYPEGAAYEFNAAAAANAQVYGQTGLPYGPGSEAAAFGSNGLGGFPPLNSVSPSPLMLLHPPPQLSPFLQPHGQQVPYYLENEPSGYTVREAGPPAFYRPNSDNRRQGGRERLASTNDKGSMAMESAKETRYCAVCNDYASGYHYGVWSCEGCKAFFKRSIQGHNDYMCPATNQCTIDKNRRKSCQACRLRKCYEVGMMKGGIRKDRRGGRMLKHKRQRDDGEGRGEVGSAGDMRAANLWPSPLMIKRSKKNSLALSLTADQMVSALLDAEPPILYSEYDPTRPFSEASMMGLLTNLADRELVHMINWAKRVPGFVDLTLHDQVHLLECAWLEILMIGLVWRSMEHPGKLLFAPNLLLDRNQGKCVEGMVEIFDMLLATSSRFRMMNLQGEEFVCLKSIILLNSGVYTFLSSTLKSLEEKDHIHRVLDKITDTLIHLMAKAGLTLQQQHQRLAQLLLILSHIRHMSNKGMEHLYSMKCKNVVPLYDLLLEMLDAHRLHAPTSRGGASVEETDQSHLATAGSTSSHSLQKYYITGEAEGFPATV

[12] = target: Sphingosine 1-phosphate receptor 2 (Homo sapiens, UniProt O95136); test: Dose Response Cell Based Assay for Agonists of the S1P2 Receptor of Purchased Analogues. [Related pubchem assays: 729, 843, 854, 736 ]; type: functional
[13] = target: T2, RNA-binding protein pos-1 (Caenorhabditis elegans, UniProt G5EF15); test: disruptors of C. elegans POS-1 RNA interaction – biochemical, fluorescence polarization, dose response (AID 1964);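 also: purified POS-1 fused to maltose binding protein made in E. coli; potency of compounds blocking POS-1 binding to fluorescent RNA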
T2 sequence (G5EF15 whole entry): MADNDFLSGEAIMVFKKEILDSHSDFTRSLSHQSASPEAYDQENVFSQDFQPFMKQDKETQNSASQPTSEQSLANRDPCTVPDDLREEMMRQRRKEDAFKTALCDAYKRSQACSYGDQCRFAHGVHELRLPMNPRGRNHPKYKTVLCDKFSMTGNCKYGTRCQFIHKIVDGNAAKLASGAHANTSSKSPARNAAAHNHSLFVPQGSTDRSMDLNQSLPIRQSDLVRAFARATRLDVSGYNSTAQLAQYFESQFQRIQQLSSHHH

[14] = target: T3, Zinc finger protein mex-5 (Caenorhabditis elegans, UniProt Q9XUB2); test: potency of MEX-5 RNA-binding blockers – biochemical, C. elegans, fluorescence polarization, dose response (AID 1960)
T3 sequence (Q9XUB2 whole entry): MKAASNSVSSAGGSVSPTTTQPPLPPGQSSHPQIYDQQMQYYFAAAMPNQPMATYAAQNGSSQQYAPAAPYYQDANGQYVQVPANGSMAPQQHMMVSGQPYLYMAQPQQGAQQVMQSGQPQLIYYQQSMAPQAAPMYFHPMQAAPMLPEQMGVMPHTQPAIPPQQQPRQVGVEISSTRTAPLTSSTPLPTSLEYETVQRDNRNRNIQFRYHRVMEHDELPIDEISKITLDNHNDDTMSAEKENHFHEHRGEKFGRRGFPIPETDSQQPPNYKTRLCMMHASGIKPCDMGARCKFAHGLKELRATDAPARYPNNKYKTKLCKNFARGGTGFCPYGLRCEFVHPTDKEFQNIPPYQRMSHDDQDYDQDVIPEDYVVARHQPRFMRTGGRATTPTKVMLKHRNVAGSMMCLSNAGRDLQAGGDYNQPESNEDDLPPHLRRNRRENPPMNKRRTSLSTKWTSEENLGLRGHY

Nonstructural protein 1 = Nonstructural protein 1 (Influenza A virus, UniProt Q194T2); type: functional, Influenza A virus (A/California/07/2009(H1N1))
[15] = viability loss in HeLa cells – cytotoxicity control for MgcRacGAP inhibitor project, dose response (AID 624300); type: functional
[16] = target: T4, Rac GTPase-activating protein 1 (Homo sapiens, UniProt Q9H0H5); test: blockers of MgcRacGAP-driven Rac1 GTP hydrolysis – biochemical, ADP Hunter fluorescence, primary and confirmatory, confirmation (AID 624330); type: functional
T4 sequence (Q9H0H5 whole entry): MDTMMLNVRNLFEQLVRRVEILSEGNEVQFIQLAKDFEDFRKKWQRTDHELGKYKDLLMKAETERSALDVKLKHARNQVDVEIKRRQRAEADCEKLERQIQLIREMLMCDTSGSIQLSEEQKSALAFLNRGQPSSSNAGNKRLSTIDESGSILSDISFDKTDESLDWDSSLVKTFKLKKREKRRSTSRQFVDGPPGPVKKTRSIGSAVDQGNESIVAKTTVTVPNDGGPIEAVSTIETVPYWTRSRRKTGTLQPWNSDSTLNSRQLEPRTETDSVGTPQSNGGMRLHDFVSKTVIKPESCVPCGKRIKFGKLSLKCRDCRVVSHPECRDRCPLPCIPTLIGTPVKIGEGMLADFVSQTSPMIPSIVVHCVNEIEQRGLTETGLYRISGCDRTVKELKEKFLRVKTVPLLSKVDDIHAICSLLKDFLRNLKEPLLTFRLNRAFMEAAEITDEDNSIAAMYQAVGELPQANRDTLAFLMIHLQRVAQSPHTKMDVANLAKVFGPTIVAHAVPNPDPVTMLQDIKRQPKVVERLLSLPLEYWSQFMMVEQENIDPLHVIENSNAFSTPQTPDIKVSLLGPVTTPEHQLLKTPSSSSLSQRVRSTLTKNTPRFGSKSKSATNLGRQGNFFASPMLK

[17] = target: T5, DNA repair protein RAD52 homolog (Homo sapiens, UniProt P43351); type: functional, biochemical
T5 sequence (P43351 whole entry): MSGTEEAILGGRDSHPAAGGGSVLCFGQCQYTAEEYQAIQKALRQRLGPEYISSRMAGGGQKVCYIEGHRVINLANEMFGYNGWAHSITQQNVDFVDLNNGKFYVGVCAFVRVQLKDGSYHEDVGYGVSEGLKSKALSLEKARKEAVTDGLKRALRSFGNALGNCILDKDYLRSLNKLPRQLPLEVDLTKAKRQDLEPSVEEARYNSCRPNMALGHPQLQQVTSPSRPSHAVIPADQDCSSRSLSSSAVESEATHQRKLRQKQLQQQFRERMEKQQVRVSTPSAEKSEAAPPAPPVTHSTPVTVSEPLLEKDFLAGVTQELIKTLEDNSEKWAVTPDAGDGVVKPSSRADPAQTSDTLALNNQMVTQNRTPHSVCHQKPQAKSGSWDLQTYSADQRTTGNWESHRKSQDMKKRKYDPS

[18] = target: RNA-editing ligase 1, mitochondrial (Trypanosoma brucei brucei, UniProt P86926); test: inhibition of trypanosome RNA editing ligase – biochemical, fluorescence, Trypanosoma brucei, dose response (AID 1117295); type: functional
[19] = target: Glyceraldehyde-3-phosphate dehydrogenase (Homo sapiens, UniProt P04406)
Bcl-2-related protein A1 [20] = target: T6, Bcl-2-related protein A1 (Mus musculus, UniProt Q07440); test: small-molecule antagonists of Bfl-1/BH3 interaction – biochemical, TR-FRET, mouse Bfl-1, confirmation (AID 621);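 also: TR-FRET binding of GST-Bfl-1 to FITC-labelled Bid peptide via terbium antibody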
T6 sequence (Q07440 whole entry): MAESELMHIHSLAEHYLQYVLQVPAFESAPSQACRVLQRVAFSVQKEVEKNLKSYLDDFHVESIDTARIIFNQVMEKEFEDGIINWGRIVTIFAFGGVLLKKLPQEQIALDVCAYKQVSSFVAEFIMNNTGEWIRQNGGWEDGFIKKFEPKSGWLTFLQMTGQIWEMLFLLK

Bcl-2-related protein A1 [21] = target: T6, Bcl-2-related protein A1; test: Bfl-1 binding inhibitors, SAR follow-up, biochemical, fluorescence polarization (AID 1070)
Protein Tat = Protein Tat (Human immunodeficiency virus type 1 group M subtype B (isolate HXB2)(HIV-1), UniProt P04608); type: functional;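 also: tat binding to TAR RNA read out by fluorescence polarization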
[22] = growth inhibition of yeast DHODH-expressing 3D7 parasites – SYBR Green, dry powder samples, dose response (AID 1159570); type: functional, cell-based;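 also: parasite growth measured after 72 hours of compound exposure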
[23] = P. falciparum Dd2 growth inhibitors, dose response, SYBR Green, cherry-picked samples (AID 1159567); type: functional, cell-based
[24] = Dd2 malaria parasite growth inhibition potency – SYBR Green, dry powder samples, dose response (AID 1159566); type: functional, cell-based;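 also: potency for growth inhibition with lower SYBR green DNA signal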
[25] = growth inhibition of PfATP4-mutant resistant parasites – NITD609-resistant line, SYBR Green, dry powder, dose response (AID 1159571); type: functional, cell-based;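 also: parasites synchronized at ring stage by sorbitol before testing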
[26] = viability of uninfected HEp-2 cells – cell-based, HTS, cytotoxicity control for RSV inhibitor project, dose response (AID 2410); type: functional; settings: human respiratory syncytial virus
[27] = Luminescence Cell-Based Dose Confirmation HTS to Identify Activators of 5'UTR Stem-Loop Driven Alpha-Synuclein mRNA Translation in H4 Neuroglioblastoma Cells. [Related pubchem assays: 1829 (Project Summary), 1814 (Primary HTS)]; type: functional
[28] = Luminescence Cell-Based Dose Response HTS to Identify Activators of Luciferase Translation or Activity in H4 […] Cells. [Related pubchem assays: 1829 (Project Summary), 1814 (Primary HTS)]; type: functional
H4 = test: Luminescence Cell-Based Dose Response HTS to Identify Activators of 5'UTR Stem-Loop Driven Prion Protein mRNA Translation in H4 Neuroglioblastoma Cells. [Related pubchem assays: 1829 (Project Summary), 1814 (Primary HTS)]; type: functional; settings: Homo sapiens
[29] = rise of 2N DNA cells, HeLa – IC50, dose response (AID 1117349); type: functional, cell-based
[30] = rise of 4N DNA cells, HeLa – IC50, dose response (AID 1117351); type: functional, cell-based

CCCCN(CC)CCNC(=O)c1nn(-c2ccc(OC)cc2)c(=O)c2c1c1ccccc1n2C
EC50 [1]: < 100 nM (active) | EC50 [2]: > 60 µM (not active) | EC50 (cells [3]): 207 nM (active)

Cc1ccc(C(=O)OCC(=O)Nc2sc3c(c2C#N)CCCCC3)cc1NC(=O)c1ccco1
EC50 [4]: > 20 µM (not active) | EC50 [5]: > 20 µM (not active)

CCN1CCN(C(=O)c2ccc3c(=O)n(C4CCCC4)c(=S)[nH]c3c2)CC1
IC50 [6]: > 109 µM (inactive) | IC50 [7]: > 83.3 µM (inactive)

CCCOc1ccc(C(=O)C2=C(O)C(=O)N(c3ccccn3)C2c2ccccc2F)cc1C (stereo not drawn)
IC50 (NS3): 5.77 µM (active) | IC50 (Major prion protein): 2.96 µM (active) | IC50 (cells [8]): > 138 µM (inactive)

COC(=O)c1ccc(COC(=O)c2ccc(S(=O)(=O)N3CCC(C)CC3)cc2)o1
EC50 [9]: > 79.4 µM (not active) | EC50 [10]: > 79.4 µM (not active) | EC50 [11]: > 79.4 µM (not active) | EC50 (Estrogen receptor): 12.6 µM (not active)

Cc1cc(C(=O)CSc2nnc(C3CC3)n2C)c(C)n1Cc1ccccc1
EC50 [12]: > 30 µM (not active)

Cn1c(N=Nc2ccc(N3CCOCC3)cc2)[n+](C)c2ccccc21
EC50 [13]: > 300 µM (not active) | EC50 [14]: 219 µM (active) | IC50 (Nonstructural protein 1): 8.01 µM (active) | CC50 [15]: 100 µM (active) | IC50 [16]: 26 µM (active) | AC50 [17]: 2.36 µM (active) | IC50 [18]: 34 µM (inactive)

O=C1C(Cl)=C(Cl)C(=O)N1c1ccc(Cl)cc1Cl
IC50 [19]: > 100 µM (not active) | IC50 (Bcl-2-related protein A1 [20]): 740 nM (active) | IC50 (Bcl-2-related protein A1 [21]): 1.64 µM (active)

CC(C)(Oc1ccc(Cl)cc1)C(=O)NCc1ccco1
IC50 (Protein Tat): > 100 µM (active)

O=[N+]([O-])c1cccc(S(=O)(=O)c2ccc(N3CCCCC3)c([N+](=O)[O-])c2)c1
IC50 [6]: > 109 µM (inactive) | IC50 [7]: > 83.3 µM (inactive)

COC(=O)c1c(NC(=O)Cn2cnc([N+](=O)[O-])n2)sc2c1CCC(C)C2 (stereo not drawn)
EC50 [1]: < 100 nM (active) | EC50 [2]: > 60 µM (inconclusive) | EC50 (cells [3]): 112 nM (active)

Cc1cc(C(=O)CN2C(=O)NC3(CCOc4ccccc43)C2=O)c(C)n1Cc1ccccc1 (stereo not drawn)
EC50 [12]: > 30 µM (not active)

CCS(=O)(=O)N1CCC2(CC1)CN(S(=O)(=O)c1ccc(C)cc1)[C@@H](CO)c1[nH]c3cc(OC)ccc3c12
AC50 [22]: 1.04 µM (active) | AC50 [23]: 1.3 µM (active) | AC50 [24]: 880 nM (active) | AC50 [25]: 738 nM (active)

C[C@H]1CCC[C@@H](O)CCC/C=C/c2cc(O)cc(O)c2C(=O)O1
CC50 [26]: 8.71 µM (active) | EC50 [27]: 15.3 µM (active) | EC50 [28]: > 120 µM (not active) | EC50 (H4): > 120 µM (not active) | EC50 (Estrogen receptor): 9.22 µM (active)

Nc1nc(=O)n([C@@H]2O[C@H](CO)[C@@H](O)[C@@H]2F)cc1I [FIACITABINE]
IC50 [29]: > 10 µM (inactive) | IC50 [30]: > 10 µM (inactive)
